One test has as its target T1, GLP-2R R242^ECL1A (Homo sapiens, UniProt O95838, R242A).
T1 sequence (O95838 1-553 R242A): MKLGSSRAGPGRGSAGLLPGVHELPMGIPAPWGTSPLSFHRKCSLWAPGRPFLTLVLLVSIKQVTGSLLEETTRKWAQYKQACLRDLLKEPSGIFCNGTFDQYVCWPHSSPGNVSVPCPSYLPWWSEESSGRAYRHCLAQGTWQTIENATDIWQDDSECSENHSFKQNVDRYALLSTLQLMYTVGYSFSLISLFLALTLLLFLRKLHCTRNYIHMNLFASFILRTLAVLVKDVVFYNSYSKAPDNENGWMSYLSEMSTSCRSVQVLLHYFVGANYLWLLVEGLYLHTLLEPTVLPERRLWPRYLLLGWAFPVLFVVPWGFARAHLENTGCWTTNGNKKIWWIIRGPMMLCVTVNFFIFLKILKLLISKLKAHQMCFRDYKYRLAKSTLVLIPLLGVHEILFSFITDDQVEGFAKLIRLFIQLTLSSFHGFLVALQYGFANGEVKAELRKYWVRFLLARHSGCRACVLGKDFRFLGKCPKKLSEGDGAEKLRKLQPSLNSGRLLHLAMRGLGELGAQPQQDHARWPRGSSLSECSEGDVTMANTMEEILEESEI
The experiment in a line: radioligand competition binding, R242^ECL1A. Set-up: WT (1–553); expressed in transfected cells. Particulars: COS-7, R242^ECL1A; [^125I]GLP-2(1–33, M10Y) 10–15 pM, 4 h, 4 °C; mean ± SEM, n ≥ 3 in duplicate. On the procedure: (§1) A stepwise oxidation reaction was performed by addition of 6 aliquots of 5 µL ChloramineT (30 µL/mL) with a 1-min interval during constant stirring. The reaction was terminated by the addition of 400 µL phase A (0.1% trifluoracetic acid) before being fractionated into 1 mL volume by reverse-phase high-performance liquid chromatography (RP-HPLC, Waters 600 SimiPrep system) on a C18 column. The iodinated protein was […] by increasing concentrations of phase B (Acetonitrile + 0.1% TFA) and tested for competitive binding ability.
(§2) One day before transfection, the COS-7 cells were seeded in 75 cm^2 culture flasks (3 million cells/flask) in DMEM, containing 3.9 g/L NaHCO3 and supplemented with 10% FBS, 1% L-glutamine, 180 units/mL penicillin and 45 µg/mL streptomycin. After an overnight culture at 37 °C, 10% CO2 and 95% air humidity, the cells were transiently transfected with different GLP-2R constructs or pcDNA3.1 vector as previously described.[52] Following 24-h incubation, the cells were transferred to Costa® microtiter plates (150,000 cells/well, PerkinElmer) to achieve a 5%–10% specific binding. […] The cells were then washed twice in binding buffer (4 °C), lysed and counted for radioactivity using a Wallac Gamma Counter (PerkinElmer).
For orientation: In a radioligand displacement assay an active substance lowers the binding of a labelled ligand.

The target of another test is T2, GLP-2R R344^5.40A (Homo sapiens, UniProt O95838, R344A).
T2 sequence (O95838 1-553 R344A): T1 sequence (O95838 1-553 R242A) with A242R, R344A
The experiment in a line: radioligand competition binding, R344^5.40A. Also noted: WT (1–553); expressed in transfected cells; host or cells: COS-7. To be noted: COS-7, R344^5.40A; [^125I]GLP-2(1–33, M10Y) 10–15 pM, 4 h, 4 °C; mean ± SEM, n ≥ 3 in duplicate. On the procedure:
as §1, §2

A further test addresses T3, GLP-2R K414^7.35A (Homo sapiens, UniProt O95838, K414A).
T3 sequence (O95838 1-553 K414A): T1 sequence (O95838 1-553 R242A) with A242R, K414A
The experiment in a line: radioligand competition binding, K414^7.35A. Particulars: COS-7, K414^7.35 A; [^125I]GLP-2(1–33, M10Y) 10–15 pM, 4 h, 4 °C; mean ± SEM, n ≥ 3 in duplicate. Also noted: WT (1–553); expressed in transfected cells; host or cells: COS-7. On the procedure: as §1, §2

Where a chain is given by its changes, count along the chain named.

In the case of `CC[C@H](C)[C@H](NC(=O)[C@H](Cc1ccccc1)NC(=O)[C@H](CC(=O)O)NC(=O)[C@H](CCCNC(=N)N)NC(=O)[C@H](C)NC(=O)[C@H](C)NC(=O)[C@H](CC(C)C)NC(=O)[C@H](CC(N)=O)NC(=O)[C@H](CC(=O)O)NC(=O)[C@H](CC(C)C)NC(=O)[C@@H](NC(=O)[C@@H](NC(=O)[C@H](CC(N)=O)NC(=O)[C@H](CCSC)NC(=O)[C@H](CCC(=O)O)NC(=O)[C@H](CC(=O)O)NC(=O)[C@H](CO)NC(=O)[C@H](Cc1ccccc1)NC(=O)[C@H](CO)NC(=O)CNC(=O)[C@H](CC(=O)O)NC(=O)[C@H](C)NC(=O)[C@@H](N)Cc1c[nH]cn1)[C@@H](C)O)[C@@H](C)CC)C(=O)N[C@@H](CC(N)=O)C(=O)N[C@@H](Cc1c[nH]c2ccccc12)C(=O)N[C@@H](CC(C)C)C(=O)N[C@H](C(=O)N[C@@H](CCC(N)=O)C(=O)N[C@H](C(=O)N[C@@H](CCCCN)C(=O)N[C@H](C(=O)N[C@H](C(=O)N[C@@H](CC(=O)O)C(=O)O)[C@@H](C)O)[C@@H](C)CC)[C@@H](C)O)[C@@H](C)CC` [Human GLP-2 (1–33)], the “% Binding of WT” value amounted to 4.2 ± 0.6 % on GLP-2R R242^ECL1A, 5.0 ± 0.8 % on GLP-2R R344^5.40A and 15.2 ± 1.0 % on GLP-2R K414^7.35A.
For `CC[C@H](C)[C@H](NC(=O)[C@H](Cc1ccccc1)NC(=O)[C@H](CC(=O)O)NC(=O)[C@H](CCCNC(=N)N)NC(=O)[C@H](C)NC(=O)[C@H](C)NC(=O)[C@H](CC(C)C)NC(=O)[C@H](CC(N)=O)NC(=O)[C@H](CC(=O)O)NC(=O)[C@H](CC(C)C)NC(=O)[C@@H](NC(=O)[C@@H](NC(=O)[C@H](CC(N)=O)NC(=O)[C@H](CCSC)NC(=O)[C@H](CCC(=O)O)NC(=O)[C@H](CC(=O)O)NC(=O)[C@H](CO)NC(=O)[C@H](Cc1ccccc1)NC(=O)[C@H](CO)NC(=O)CNC(=O)[C@H](CC(=O)O)NC(=O)CNC(=O)[C@@H](N)Cc1c[nH]cn1)[C@@H](C)O)[C@@H](C)CC)C(=O)N[C@@H](CC(N)=O)C(=O)N[C@@H](Cc1c[nH]c2ccccc12)C(=O)N[C@@H](CC(C)C)C(=O)N[C@H](C(=O)N[C@@H](CCC(N)=O)C(=O)N[C@H](C(=O)N[C@@H](CCCCN)C(=O)N[C@H](C(=O)N[C@H](C(=O)N[C@@H](CC(=O)O)C(=O)O)[C@@H](C)O)[C@@H](C)CC)[C@@H](C)O)[C@@H](C)CC` [Teduglutide], in that order: 5.1 ± 1.5 %, 3.5 ± 0.8 % and 13.9 ± 0.8 %.

Values taken from publication PMC7785020, “A unique hormonal recognition feature of the human glucagon-like peptide-2 receptor” (Cell Research, 2020).
